ChEMBL document CHEMBL2439971, “Design, synthesis and antiproliferative evaluation of fluorenone analogs with DNA topoisomerase I inhibitory properties” (Bioorg Med Chem, 2013)
The source made the active and inactive calls. The calls are words filed in the database; no cut-off is given here.

Experiments:
[1] = Cytotoxicity against human EKVX cells at 10 uM after 48 hrs by sulforhodamine B assay relative to control; type: functional
OVCAR-8 = test: Cytotoxicity against human OVCAR8 cells at 10 uM after 48 hrs by sulforhodamine B assay relative to control; type: functional
NCI-H23 = test: Cytotoxicity against human NCI-H23 cells at 10 uM after 48 hrs by sulforhodamine B assay relative to control; type: functional
DU-145 = test: Cytotoxicity against human DU145 cells at 10 uM after 48 hrs by sulforhodamine B assay relative to control; type: functional
CCRF-CEM = test: Cytotoxicity against human CCRF-CEM cells at 10 uM after 48 hrs by sulforhodamine B assay relative to control; type: functional
MCF7 = test: Cytotoxicity against human MCF7 cells at 10 uM after 48 hrs by sulforhodamine B assay relative to control; type: functional
HCT-15 = test: Cytotoxicity against human HCT15 cells at 10 uM after 48 hrs by sulforhodamine B assay relative to control; type: functional
NCI-H322M = test: Cytotoxicity against human NCI-H322M cells at 10 uM after 48 hrs by sulforhodamine B assay relative to control; type: functional
K562 = test: Cytotoxicity against human K562 cells at 10 uM after 48 hrs by sulforhodamine B assay relative to control; type: functional
NCI-H226 = test: Cytotoxicity against human NCI-H226 cells at 10 uM after 48 hrs by sulforhodamine B assay relative to control; type: functional
MDA-MB-435 = test: Cytotoxicity against human MDA-MB-435 cells at 10 uM after 48 hrs by sulforhodamine B assay relative to control; type: functional
OVCAR-5 = test: Cytotoxicity against human OVCAR5 cells at 10 uM after 48 hrs by sulforhodamine B assay relative to control; type: functional
RPMI-8226 = test: Cytotoxicity against human RPMI8226 cells at 10 uM after 48 hrs by sulforhodamine B assay relative to control; type: functional
786-0 = test: Cytotoxicity against human 786-0 cells at 10 uM after 48 hrs by sulforhodamine B assay relative to control; type: functional
HCC 2998 = test: Cytotoxicity against human HCC2998 cells at 10 uM after 48 hrs by sulforhodamine B assay relative to control; type: functional
PC-3 [2] = test: Cytotoxicity against human PC3 cells after 48 hrs by sulforhodamine B assay; type: functional, cell-based; conditions: PC-3, 48 h
SN12C = test: Cytotoxicity against human SN12C cells at 10 uM after 48 hrs by sulforhodamine B assay relative to control; type: functional
U-251 = test: Cytotoxicity against human U251 cells at 10 uM after 48 hrs by sulforhodamine B assay relative to control; type: functional
M14 = test: Cytotoxicity against human M14 cells at 10 uM after 48 hrs by sulforhodamine B assay relative to control; type: functional
Homo sapiens = organism: Homo sapiens; test: Inhibition of telomerase (unknown origin) at 10 uM TRAP assay
HOP-62 = test: Cytotoxicity against human HOP62 cells at 10 uM after 48 hrs by sulforhodamine B assay relative to control; type: functional
SF-539 = test: Cytotoxicity against human SF539 cells at 10 uM after 48 hrs by sulforhodamine B assay relative to control; type: functional
BT-549 = test: Cytotoxicity against human BT549 cells at 10 uM after 48 hrs by sulforhodamine B assay relative to control; type: functional
COLO 205 = test: Cytotoxicity against human COLO205 cells at 10 uM after 48 hrs by sulforhodamine B assay relative to control; type: functional
T47D = test: Cytotoxicity against human T47D cells at 10 uM after 48 hrs by sulforhodamine B assay relative to control; type: functional
MOLT-4 = test: Cytotoxicity against human MOLT4 cells at 10 uM after 48 hrs by sulforhodamine B assay relative to control; type: functional
ACHN = test: Cytotoxicity against human ACHN cells at 10 uM after 48 hrs by sulforhodamine B assay relative to control; type: functional
OVCAR-3 = test: Cytotoxicity against human OVCAR3 cells at 10 uM after 48 hrs by sulforhodamine B assay relative to control; type: functional
HCT-116 = test: Cytotoxicity against human HCT116 cells at 10 uM after 48 hrs by sulforhodamine B assay relative to control; type: functional
SNB-75 = test: Cytotoxicity against human SNB75 cells at 10 uM after 48 hrs by sulforhodamine B assay relative to control; type: functional
SF-268 = test: Cytotoxicity against human SF268 cells at 10 uM after 48 hrs by sulforhodamine B assay relative to control; type: functional
A549 = test: Cytotoxicity against human A549 cells at 10 uM after 48 hrs by sulforhodamine B assay relative to control; type: functional
HT-29 = test: Cytotoxicity against human HT-29 cells at 10 uM after 48 hrs by sulforhodamine B assay relative to control; type: functional
UACC-62 = test: Cytotoxicity against human UACC62 cells at 10 uM after 48 hrs by sulforhodamine B assay relative to control; type: functional
[3] = Cytotoxicity against human Hs 578T cells at 10 uM after 48 hrs by sulforhodamine B assay relative to control; type: functional
MDA-MB-231 = test: Cytotoxicity against human MDA-MB-231 cells at 10 uM after 48 hrs by sulforhodamine B assay relative to control; type: functional
SW-620 = test: Cytotoxicity against human SW620 cells at 10 uM after 48 hrs by sulforhodamine B assay relative to control; type: functional
PC-3 [4] = test: Cytotoxicity against human PC3 cells at 10 uM after 48 hrs by sulforhodamine B assay relative to control; type: functional
LOX IMVI = test: Cytotoxicity against human LOXIMVI cells at 10 uM after 48 hrs by sulforhodamine B assay relative to control; type: functional
SK-MEL-5 = test: Cytotoxicity against human SK-MEL-5 cells at 10 uM after 48 hrs by sulforhodamine B assay relative to control; type: functional
SK-MEL-2 = test: Cytotoxicity against human SK-MEL-2 cells at 10 uM after 48 hrs by sulforhodamine B assay relative to control; type: functional
OVCAR-4 = test: Cytotoxicity against human OVCAR4 cells at 10 uM after 48 hrs by sulforhodamine B assay relative to control; type: functional
UO-31 = test: Cytotoxicity against human UO31 cells at 10 uM after 48 hrs by sulforhodamine B assay relative to control; type: functional
SK-MEL-28 = test: Cytotoxicity against human SK-MEL-28 cells at 10 uM after 48 hrs by sulforhodamine B assay relative to control; type: functional
NCI-H460 = test: Cytotoxicity against human NCI-H460 cells at 10 uM after 48 hrs by sulforhodamine B assay relative to control; type: functional
TK-10 = test: Cytotoxicity against human TK10 cells at 10 uM after 48 hrs by sulforhodamine B assay relative to control; type: functional
RXF 393 = test: Cytotoxicity against human RXF393 cells at 10 uM after 48 hrs by sulforhodamine B assay relative to control; type: functional
SNB-19 = test: Cytotoxicity against human SNB19 cells at 10 uM after 48 hrs by sulforhodamine B assay relative to control; type: functional
MDA-MB-468 = test: Cytotoxicity against human MDA-MB-468 cells at 10 uM after 48 hrs by sulforhodamine B assay relative to control; type: functional
UACC-257 = test: Cytotoxicity against human UACC257 cells at 10 uM after 48 hrs by sulforhodamine B assay relative to control; type: functional
NCI/ADR-RES = test: Cytotoxicity against human NCI/ADR-RES cells at 10 uM after 48 hrs by sulforhodamine B assay relative to control; type: functional
Malme-3M = test: Cytotoxicity against human MALME-3M cells at 10 uM after 48 hrs by sulforhodamine B assay relative to control; type: functional
IGROV-1 = test: Cytotoxicity against human IGROV1 cells at 10 uM after 48 hrs by sulforhodamine B assay relative to control; type: functional
CAKI-1 = test: Cytotoxicity against human CAKI-1 cells at 10 uM after 48 hrs by sulforhodamine B assay relative to control; type: functional
SR = test: Cytotoxicity against human SR cells at 10 uM after 48 hrs by sulforhodamine B assay relative to control; type: functional
NCI-H522 = test: Cytotoxicity against human NCI-H522 cells at 10 uM after 48 hrs by sulforhodamine B assay relative to control; type: functional
HL-60(TB) = test: Cytotoxicity against human HL-60(TB) cells at 10 uM after 48 hrs by sulforhodamine B assay relative to control; type: functional
SF-295 = test: Cytotoxicity against human SF295 cells at 10 uM after 48 hrs by sulforhodamine B assay relative to control; type: functional
KM12 = test: Cytotoxicity against human KM12 cells at 10 uM after 48 hrs by sulforhodamine B assay relative to control; type: functional

`CCCSCC(=O)Nc1ccc2c(c1)C(=O)c1cc(NC(=O)CSCCC)ccc1-2` gave an Activity [1] of 100.02%, an Activity (OVCAR-8) of 122.23% and an Activity (NCI-H23) of 98.99%. It also gave an Activity (DU-145) of 111.27%, an Activity (CCRF-CEM) of 90.86% and an Activity (MCF7) of 92.24%. The Activity (HCT-15) was 86.05%, the Activity (NCI-H322M) was 84.33% and the Activity (K562) was 84.45%. The Activity (NCI-H226) was 110.7%, the Activity (MDA-MB-435) was 102.08% and the Activity (OVCAR-5) was 106.86%. It also gave an Activity (RPMI-8226) of 45.12%, an Activity (786-0) of 88.03% and an Activity (HCC 2998) of 101.22%. The IC50 (PC-3 [2]) was over 30 µM, the Activity (SN12C) was 102.58% and the Activity (U-251) was 82.28%. The Activity (M14) was 99.86%, the inhibition (Homo sapiens) was “inactive” and the Activity (HOP-62) was 106.36%. It also gave an Activity (SF-539) of 77.18%, an Activity (BT-549) of 79.13% and an Activity (COLO 205) of 111.93%. The Activity (T47D) was 94.56%, the Activity (MOLT-4) was 82.96% and the Activity (ACHN) was 110.7%. It also gave an Activity (OVCAR-3) of 108.65%, an Activity (HCT-116) of 97.47% and an Activity (SNB-75) of 88.25%. For the same compound, the Activity (SF-268) was 121.78%, the Activity (A549) was 99.19% and the Activity (HT-29) was 93.31%. The Activity (UACC-62) was 107.45%, the Activity [3] was 92.42% and the Activity (MDA-MB-231) was 110.09%. For the same compound, the Activity (SW-620) was 117.49%, the Activity (PC-3 [4]) was 94.41% and the Activity (LOX IMVI) was 90.88%. The Activity (SK-MEL-5) was 91.99%, the Activity (SK-MEL-2) was 106.67% and the Activity (OVCAR-4) was 106.85%. It also gave an Activity (UO-31) of 104.91%, an Activity (SK-MEL-28) of 90.58% and an Activity (NCI-H460) of 110.9%. It also gave an Activity (TK-10) of 109.43%, an Activity (RXF 393) of 73.43% and an Activity (SNB-19) of 102.55%. For the same compound, the Activity (MDA-MB-468) was 98.19%, the Activity (UACC-257) was 137.38% and the Activity (NCI/ADR-RES) was 100.59%. It also gave an Activity (Malme-3M) of 107%, an Activity (IGROV-1) of 103.61% and an Activity (CAKI-1) of 116.5%. For the same compound, the Activity (SR) was 76.63%, the Activity (NCI-H522) was 80.15% and the Activity (HL-60(TB)) was 99.03%. For the same compound, the Activity (SF-295) was 69.6% and the Activity (KM12) was 90.34%.
